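Grown in 96-well plates, cells were treated for 48 hours with each compound at five concentrations. Insufficient inhibition: endpoint recorded as highest concentration tested. TGI: concentration producing complete growth inhibition.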

Some test systems named below: CAKI-1 renal; HCC-2998 colon; HCT-15 colon; MCF7 breast; MDA-MB-231 breast; MDA-MB-435; MOLT-4 leukemia; OVCAR-3 ovarian; OVCAR-4 ovarian; OVCAR-5 ovarian; PC-3 prostate; RXF 393 renal; SK-MEL-2 melanoma; SN12C renal; SNB-75 CNS; SR leukemia; SW-620 colon; UACC-62 melanoma.
Experiment in all cases: NCI tumour cell line growth inhibition, 48 h

Regarding `COc1cc2c3c(n(C)c(=O)c2cc1OC)-c1cc2c(cc1/C3=C\CCCI)OCO2`, the TGI in the assay with CAKI-1 renal, in the assay with HCC-2998 colon, in the assay on HCT-15 colon, in the assay with MCF7 breast, in the assay with MDA-MB-231 breast and in the assay with MDA-MB-435 was above 100 µM throughout. For the same compound, the TGI with MOLT-4 leukemia is above 36.3 µM; with OVCAR-3 ovarian it was above 100 µM; in the assay on OVCAR-4 ovarian, above 100 µM; with OVCAR-5 ovarian it was above 100 µM; with PC-3 prostate, above 100 µM; in the assay on RXF 393 renal, above 100 µM. In addition, the TGI was above 100 µM in the assay with SK-MEL-2 melanoma; above 100 µM in the assay with SN12C renal; above 52 µM in the assay on SNB-75 CNS; 23.2 µM in the assay with SR leukemia; above 100 µM in the assay on SW-620 colon; above 100 µM in the assay with UACC-62 melanoma.

`CCCCCCCCCCCC[C@@H](O)[C@H]1CCC([C@H](O)CCCCC(=O)CCCCCCCC2=C[C@H](C)OC2=O)O1` (some centres undefined): the TGI in the assay with CAKI-1 renal, in the assay on HCC-2998 colon, in the assay on HCT-15 colon, with MCF7 breast, in the assay with MDA-MB-231 breast and in the assay with MDA-MB-435 was above 50 µM in each case. The TGI with MOLT-4 leukemia is above 50 µM; in the assay with OVCAR-3 ovarian, above 50 µM; in the assay on OVCAR-4 ovarian, above 50 µM; in the assay with OVCAR-5 ovarian, above 50 µM; in the assay on PC-3 prostate, above 50 µM; in the assay with RXF 393 renal, above 30.2 µM. Besides, the TGI in the assay on SK-MEL-2 melanoma is above 50 µM; in the assay with SN12C renal it was above 50 µM; in the assay with SNB-75 CNS, above 50 µM; with SR leukemia, 10.1 µM; with SW-620 colon, above 50 µM; in the assay on UACC-62 melanoma it was above 40.9 µM.

For the compound `CC(=O)Nc1ccc2[nH]c(C(=O)N3CC(CCl)c4c3cc([N+](=O)[O-])c3ccccc43)cc2c1` (centres undefined), the TGI was above 29.9 µM in the assay on CAKI-1 renal; above 100 µM in the assay on HCC-2998 colon; above 100 µM in the assay on HCT-15 colon; above 100 µM in the assay on MCF7 breast; above 100 µM in the assay with MDA-MB-231 breast; above 100 µM in the assay with MDA-MB-435. Further, the TGI with MOLT-4 leukemia was above 67.6 µM; with OVCAR-3 ovarian, above 100 µM; in the assay on OVCAR-4 ovarian, above 100 µM; in the assay with OVCAR-5 ovarian it was 96.9 µM; in the assay with PC-3 prostate it was above 100 µM; in the assay on RXF 393 renal, 32.7 µM. The TGI in the assay on SK-MEL-2 melanoma was above 69.5 µM; with SN12C renal, above 100 µM; in the assay with SNB-75 CNS, above 64.4 µM; with SR leukemia it was 5.83 µM; with SW-620 colon it was above 100 µM; in the assay on UACC-62 melanoma, above 31.6 µM.

As to `CCOC(=O)C(Cc1ccc(OC(=O)OC(C)(C)C)cc1)NC(=O)OC(C)(C)C` (centres undefined), the TGI in the assay on CAKI-1 renal is above 100 µM; in the assay with HCC-2998 colon, 76.6 µM; with HCT-15 colon it was above 100 µM; with MCF7 breast, above 100 µM; with MDA-MB-231 breast, above 100 µM; with MDA-MB-435, above 100 µM. The TGI in the assay on MOLT-4 leukemia is 56.7 µM; with OVCAR-3 ovarian, above 100 µM; in the assay with OVCAR-4 ovarian it was above 100 µM; in the assay with OVCAR-5 ovarian, above 100 µM; in the assay with PC-3 prostate it was above 100 µM; with RXF 393 renal it was above 100 µM. In addition, the TGI with SK-MEL-2 melanoma is above 100 µM; in the assay on SN12C renal, above 100 µM; in the assay on SNB-75 CNS, 62.6 µM; in the assay on SR leukemia, 67.5 µM; with SW-620 colon, above 100 µM; with UACC-62 melanoma, above 100 µM.

Take `CC(=O)Oc1c2c(c3n(c1=O)CCCC3)C(=O)N(c1ccccc1)C2=O`: the TGI was above 100 µM with CAKI-1 renal; 97.2 µM in the assay on HCC-2998 colon; above 100 µM in the assay with HCT-15 colon; above 100 µM with MCF7 breast; above 100 µM in the assay on MDA-MB-231 breast; above 100 µM in the assay on MDA-MB-435. The TGI in the assay on MOLT-4 leukemia, in the assay with OVCAR-3 ovarian, with OVCAR-4 ovarian, in the assay on OVCAR-5 ovarian, in the assay with PC-3 prostate and in the assay with RXF 393 renal was above 100 µM in each case. The TGI in the assay with SK-MEL-2 melanoma, with SN12C renal, with SNB-75 CNS, in the assay with SR leukemia, with SW-620 colon and in the assay on UACC-62 melanoma was above 100 µM each time.

Consider `C[C@@H]1C(=O)C[C@H]2C(C)(C)CCC[C@]2(C)[C@@]1(O)CCc1ccoc1`, for which the TGI in the assay with CAKI-1 renal, in the assay with HCC-2998 colon, in the assay on HCT-15 colon, in the assay on MCF7 breast, in the assay with MDA-MB-231 breast and with MDA-MB-435 was above 100 µM in each case. The TGI with MOLT-4 leukemia, with OVCAR-3 ovarian, in the assay on OVCAR-4 ovarian, with OVCAR-5 ovarian, with PC-3 prostate and with RXF 393 renal was above 100 µM in each case. The TGI with SK-MEL-2 melanoma, in the assay on SN12C renal, in the assay with SNB-75 CNS, with SR leukemia, with SW-620 colon and in the assay on UACC-62 melanoma was above 100 µM throughout.

For `O=C(NC(=O)c1cc(-c2ccccc2)n[nH]1)c1ccccc1`, the TGI with CAKI-1 renal, with HCC-2998 colon, with HCT-15 colon, in the assay on MCF7 breast, in the assay on MDA-MB-231 breast and in the assay with MDA-MB-435 was above 100 µM each time. Also, the TGI in the assay with MOLT-4 leukemia, with OVCAR-3 ovarian, in the assay with OVCAR-4 ovarian, with OVCAR-5 ovarian, in the assay on PC-3 prostate and in the assay with RXF 393 renal was above 100 µM each time. Further, the TGI was above 100 µM with SK-MEL-2 melanoma; above 100 µM with SN12C renal; above 100 µM with SNB-75 CNS; 79.2 µM in the assay on SR leukemia; above 100 µM with SW-620 colon; above 100 µM in the assay on UACC-62 melanoma.

Regarding `Cc1cc(S(=O)(=O)Nc2nnc3cnc4ccccc4n23)c(S)cc1Cl`, the TGI with CAKI-1 renal, in the assay with HCC-2998 colon, in the assay with HCT-15 colon, in the assay with MCF7 breast, in the assay with MDA-MB-231 breast and in the assay with MDA-MB-435 was above 100 µM in each case. Besides, the TGI in the assay with MOLT-4 leukemia, in the assay on OVCAR-3 ovarian, in the assay with OVCAR-4 ovarian, in the assay with OVCAR-5 ovarian, in the assay with PC-3 prostate and in the assay on RXF 393 renal was above 100 µM throughout. The TGI with SK-MEL-2 melanoma, with SN12C renal, in the assay with SNB-75 CNS, with SR leukemia, with SW-620 colon and with UACC-62 melanoma was above 100 µM in each case.

Consider `NCC(O)CNC(=O)c1ccc(-c2ccc(-c3ccc(C(=O)NCC(O)CN)cc3)o2)cc1` (centres undefined), for which the TGI in the assay on CAKI-1 renal was above 100 µM; in the assay on HCC-2998 colon, 96.5 µM; with HCT-15 colon, above 100 µM; in the assay on MCF7 breast, above 100 µM; in the assay with MDA-MB-231 breast it was 54.2 µM; with MDA-MB-435, above 100 µM. Moreover, the TGI with MOLT-4 leukemia was above 100 µM; with OVCAR-3 ovarian, 46.5 µM; with OVCAR-4 ovarian, above 100 µM; in the assay with OVCAR-5 ovarian it was above 100 µM; in the assay with PC-3 prostate, 48.3 µM; in the assay with RXF 393 renal it was 40.1 µM. Further, the TGI was above 100 µM in the assay with SK-MEL-2 melanoma; 68.9 µM in the assay on SN12C renal; 49.5 µM in the assay with SNB-75 CNS; above 100 µM with SR leukemia; above 100 µM with SW-620 colon; above 100 µM in the assay with UACC-62 melanoma.

On to `Cc1c(N=Nc2ccccc2)c(C)n(C2OC(CO)C(O)C(O)C2O)c(=S)c1C#N` (centres undefined), for which the TGI in the assay with CAKI-1 renal is above 100 µM; in the assay on HCC-2998 colon it was 59.3 µM; in the assay on HCT-15 colon, above 100 µM; with MCF7 breast, above 100 µM; with MDA-MB-231 breast it was above 100 µM; with MDA-MB-435, 71.4 µM. Besides, the TGI with MOLT-4 leukemia was 70 µM; with OVCAR-3 ovarian, 62.9 µM; in the assay with OVCAR-4 ovarian, above 100 µM; with OVCAR-5 ovarian, 81.5 µM; with PC-3 prostate, 78.6 µM; in the assay on RXF 393 renal, above 100 µM. The TGI with SK-MEL-2 melanoma was 90.2 µM; in the assay with SN12C renal, above 100 µM; in the assay with SNB-75 CNS it was above 100 µM; with SR leukemia, 87.7 µM; in the assay with SW-620 colon it was above 100 µM; in the assay with UACC-62 melanoma, 18.9 µM.

In the case of `CSc1ccn(C2CC(F)C(CO)O2)c(=O)n1` (centres undefined), the TGI in the assay with CAKI-1 renal, with HCC-2998 colon, with HCT-15 colon, in the assay on MCF7 breast, in the assay on MDA-MB-231 breast and with MDA-MB-435 was above 100 µM each time. For the same compound, the TGI in the assay with MOLT-4 leukemia, in the assay with OVCAR-3 ovarian, with OVCAR-4 ovarian, in the assay on OVCAR-5 ovarian, in the assay on PC-3 prostate and in the assay on RXF 393 renal was above 100 µM in each case. The TGI in the assay on SK-MEL-2 melanoma, in the assay with SN12C renal, in the assay on SNB-75 CNS, with SR leukemia, with SW-620 colon and in the assay with UACC-62 melanoma was above 100 µM in each case.

`CC(C)(C)OC(=O)CN1CCNCCN(CC(=O)OC(C)(C)C)CCNCC1`: the TGI in the assay on CAKI-1 renal, in the assay with HCC-2998 colon, in the assay on HCT-15 colon, in the assay with MCF7 breast, in the assay on MDA-MB-231 breast and in the assay on MDA-MB-435 was above 100 µM throughout. Moreover, the TGI in the assay on MOLT-4 leukemia, in the assay on OVCAR-3 ovarian, in the assay with OVCAR-4 ovarian, in the assay on OVCAR-5 ovarian, in the assay on PC-3 prostate and in the assay with RXF 393 renal was above 100 µM each time. Also, the TGI in the assay on SK-MEL-2 melanoma, in the assay with SN12C renal, in the assay with SNB-75 CNS, with SR leukemia, in the assay with SW-620 colon and in the assay with UACC-62 melanoma was above 100 µM each time.

For `CC(C)(C)c1cc(OCc2nn3c(Cc4ccccc4)nnc3s2)c(Cl)cc1OCc1nn2c(Cc3ccccc3)nnc2s1`, the TGI with CAKI-1 renal, with HCC-2998 colon, in the assay on HCT-15 colon, in the assay with MCF7 breast, in the assay on MDA-MB-231 breast and with MDA-MB-435 was above 100 µM each time. For the same compound, the TGI is above 100 µM in the assay on MOLT-4 leukemia; 60.4 µM in the assay with OVCAR-3 ovarian; above 100 µM in the assay on OVCAR-4 ovarian; above 100 µM in the assay on OVCAR-5 ovarian; above 100 µM in the assay with PC-3 prostate; above 100 µM with RXF 393 renal. Besides, the TGI with SK-MEL-2 melanoma, in the assay with SN12C renal, with SNB-75 CNS, with SR leukemia, in the assay on SW-620 colon and with UACC-62 melanoma was above 100 µM throughout.

These data come from PubChem BioAssay (NCI).
